Assay results taken from patent US10428081B2, “EGFR inhibitor, preparation method and use thereof” (Shanghai Hansoh Biomedical Co., Ltd., priority 2014, dated 2019).

What was measured:
[1] = molecular target: exon 20 T790M mutant-type EGFR enzyme (Homo sapiens, UniProt P00533, T790M); test: Enzymologic experiment of T790M mutant-type EGFR (TR-FRET); type: biochemical
How it was run: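 Compound dilutions preincubated 10 min at room temperature; reaction ended with EDTA, then labeled antibody added for 1 h at room temperature. Inhibition rates derived from TR-FRET fluorescence signal, and IC50 obtained by curve fitting across concentrations.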

[2] = molecular target: wild-type EGFR enzyme (Homo sapiens, UniProt P00533); test: Enzymologic experiment of wild-type (WT) EGFR (TR-FRET); type: biochemical; conditions: ATP 0.1 to 5 uM
How it was run: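 Wild-type EGFR (0.1 to 1 nM final) preincubated with serially diluted compound for 10 minutes at room temperature; reaction stopped with EDTA, then labelled antibody added for 1 hour at room temperature. TR-FRET signal converted to inhibition rates; IC50 from curve fitting across concentrations.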

[3] = test system: NCI-H1975 cells; test: Inhibition of NCI-H1975 cell proliferation (CellTiter-Glo); type: cell-based
[4] = test system: A431 cells; test: Inhibition of A431 cell proliferation (CellTiter-Glo); type: cell-based; conditions: Homo sapiens, A-431, 72 h, read-out: EGFR IC50 (nM) A431
How it was run: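 Viability read as CellTiter-Glo luminescence; IC50 by curve fitting of inhibition rates.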

[5] = PK analysis in rats; type: in vivo, Sprague Dawley (SD) rats; conditions: SD rats, single intragastric administration, 5 mg/10 ml/kg
Protocol: 1.0 ml of intravenous blood was collected and placed in a K2EDTA test tube. The blood was centrifuged at RT 6000 rpm for 5 minutes to isolate the plasma, which was stored at −80° C.
Liquid Chromatography: • Condition of Liquid chromatography Shimadzu LC-20AD pump • Chromatographic column: phenomenex Gemiu 5 μm C18 50×4.6 mm • Mobile phase: Solution A is 0.1% formic acid aqueous solution, and Solution B is acetonitrile • Flow rate: 0.8 mL/min • Elution time: 0-3.5 minutes, the eluent used was as follows:
Condition of mass spectrometer: positive ion electrospray ionization (ESI) mode. • Analysis results of liquid chromatography and mass spectrometry:

[6] = in vivo; conditions: beagle, dog, po, 2 mg/kg
Protocol: 1. 1.0 ml of intravenous blood was collected and placed in a Heparin test tube. The blood was centrifuged at RT 6000 rpm for 5 minutes to isolate the plasma, which was stored at −80° C.
2. 160 μL of acetonitrile were added to 40 μL of plasma sample for precipitation, and then the mixture was centrifuged at 3500 rpm for 5 minutes.
3. 100 μL of treated solution was taken, and the concentration of the test compound was analyzed by LC/MS/MS. The LC/MS/MS analytical instrument was AB Sciex API 4000.
Liquid Chromatography: • Condition of Liquid chromatography: Shimadzu LC-20AD pump • Chromatographic column: phenomenex Gemiu 5 μm C18 50×4.6 mm • Mobile phase: Solution A is 0.1% formic acid aqueous solution, and Solution B is acetonitrile • Flow rate: 0.8 mL/min • Elution time: 0-3.5 minutes, the eluent used was as follows: […]

[7] = Sprague-Dawley, rat, po, 5 mg/kg, plasma

exon 20 T790M mutant-type EGFR enzyme, sequence (P00533 25-1210 T790M): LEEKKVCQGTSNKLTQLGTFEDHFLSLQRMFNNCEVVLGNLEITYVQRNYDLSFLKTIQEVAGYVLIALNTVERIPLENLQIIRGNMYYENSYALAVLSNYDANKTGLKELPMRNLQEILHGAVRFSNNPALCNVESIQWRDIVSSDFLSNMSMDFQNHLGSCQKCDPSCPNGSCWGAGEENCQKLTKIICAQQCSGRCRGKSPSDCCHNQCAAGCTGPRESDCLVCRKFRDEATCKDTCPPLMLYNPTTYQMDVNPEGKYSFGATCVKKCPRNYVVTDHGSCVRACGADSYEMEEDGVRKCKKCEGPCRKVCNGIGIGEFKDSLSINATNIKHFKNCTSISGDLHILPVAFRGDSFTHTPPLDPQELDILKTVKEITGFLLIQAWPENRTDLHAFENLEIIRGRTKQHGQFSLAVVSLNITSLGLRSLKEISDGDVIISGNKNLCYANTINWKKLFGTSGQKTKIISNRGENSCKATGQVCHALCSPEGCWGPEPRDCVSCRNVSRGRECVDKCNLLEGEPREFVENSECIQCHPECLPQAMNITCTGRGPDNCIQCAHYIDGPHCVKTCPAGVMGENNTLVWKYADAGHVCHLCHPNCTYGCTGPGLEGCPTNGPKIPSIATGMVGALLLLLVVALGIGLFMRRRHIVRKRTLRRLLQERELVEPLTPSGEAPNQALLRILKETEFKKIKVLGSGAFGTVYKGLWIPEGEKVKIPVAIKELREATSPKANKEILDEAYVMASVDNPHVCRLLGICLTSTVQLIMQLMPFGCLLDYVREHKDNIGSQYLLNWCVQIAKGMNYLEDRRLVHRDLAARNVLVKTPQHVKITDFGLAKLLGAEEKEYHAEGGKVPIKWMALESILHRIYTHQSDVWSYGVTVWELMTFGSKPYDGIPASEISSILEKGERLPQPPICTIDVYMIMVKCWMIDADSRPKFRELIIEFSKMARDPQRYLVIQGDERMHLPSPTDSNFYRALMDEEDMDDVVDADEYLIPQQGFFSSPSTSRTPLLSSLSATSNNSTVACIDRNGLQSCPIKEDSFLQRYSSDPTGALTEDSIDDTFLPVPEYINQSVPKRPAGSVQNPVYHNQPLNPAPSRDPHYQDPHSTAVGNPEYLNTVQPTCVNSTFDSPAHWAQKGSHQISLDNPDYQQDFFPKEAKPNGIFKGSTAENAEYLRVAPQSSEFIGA
wild-type EGFR enzyme, sequence (P00533 25-1210): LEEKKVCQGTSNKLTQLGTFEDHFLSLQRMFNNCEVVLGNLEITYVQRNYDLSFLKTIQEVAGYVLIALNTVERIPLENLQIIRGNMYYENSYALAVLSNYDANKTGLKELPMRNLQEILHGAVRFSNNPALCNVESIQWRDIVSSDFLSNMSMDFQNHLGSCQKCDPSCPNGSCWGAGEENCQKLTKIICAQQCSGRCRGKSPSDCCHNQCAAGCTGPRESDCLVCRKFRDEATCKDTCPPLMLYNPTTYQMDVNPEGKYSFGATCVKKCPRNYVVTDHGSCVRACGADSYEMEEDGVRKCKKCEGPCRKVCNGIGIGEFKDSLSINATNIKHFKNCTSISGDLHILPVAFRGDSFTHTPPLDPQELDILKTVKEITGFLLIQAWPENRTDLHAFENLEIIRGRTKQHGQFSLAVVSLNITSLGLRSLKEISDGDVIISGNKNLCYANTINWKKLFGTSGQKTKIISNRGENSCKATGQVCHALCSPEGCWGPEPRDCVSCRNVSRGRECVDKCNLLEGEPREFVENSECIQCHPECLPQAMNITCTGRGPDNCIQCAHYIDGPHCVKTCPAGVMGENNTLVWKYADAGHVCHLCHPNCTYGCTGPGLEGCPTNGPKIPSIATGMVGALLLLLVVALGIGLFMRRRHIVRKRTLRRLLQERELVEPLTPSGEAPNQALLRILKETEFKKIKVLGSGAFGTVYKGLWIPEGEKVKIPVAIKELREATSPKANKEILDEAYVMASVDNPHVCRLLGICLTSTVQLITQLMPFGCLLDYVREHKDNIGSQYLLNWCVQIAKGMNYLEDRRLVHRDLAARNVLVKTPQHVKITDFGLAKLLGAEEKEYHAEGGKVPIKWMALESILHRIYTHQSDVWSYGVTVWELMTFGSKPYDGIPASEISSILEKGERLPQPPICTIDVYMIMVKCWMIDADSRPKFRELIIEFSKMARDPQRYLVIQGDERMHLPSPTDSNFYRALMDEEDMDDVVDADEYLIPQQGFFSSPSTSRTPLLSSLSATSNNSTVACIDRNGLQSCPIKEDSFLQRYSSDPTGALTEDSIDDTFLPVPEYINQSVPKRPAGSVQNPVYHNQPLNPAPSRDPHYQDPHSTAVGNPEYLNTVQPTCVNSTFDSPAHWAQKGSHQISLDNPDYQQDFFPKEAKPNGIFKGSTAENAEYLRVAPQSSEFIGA

IC50 ([1]; T790M EGFR enzyme, TR-FRET, ATP 1 to 10 uM): 0.49 nM
Selectivity of wild-type/mutant-type ([1]; ratio WT IC50 / T790M IC50, enzyme): 3.9
IC50 [2]: 1.89 nM
IC50 ([3]; Homo sapiens, NCI-H1975, 72 h, NCI-H1975 cell proliferation, 72 hours, CellTiter-Glo, read-out: EGFR IC50 (nM) H1975): 2.44 nM
IC50 [4]: 509 nM
metabolites in the plasma of rat [5]: only one metabolite
AUC(0-inf) [5, 7]: 268 ng·h/mL
Cmax [5, 7]: 58.4 ng/mL
Tmax [5, 7]: 0.5 h
half-life [5, 7]: 2.3 h
AUC(0-t) ([5]; Sprague-Dawley, rat, po, 5 mg/kg, plasma, read-out: AUC0-8): 235 ng·h/mL
MRT inf ([5]; Sprague-Dawley, rat, po, 5 mg/kg, plasma, read-out: MRT0-∞): 3.9 h
AUC(0-inf) [6]: 5150 ng·h/mL
AUC(0-t) [6]: 4580 ng·h/mL
Cmax [6]: 528 ng/mL
MRT inf [6]: 9.2 h
Tmax [6]: 1 h
half-life [6]: 7 h
SMILES: C=CC(=O)Nc1cc(Nc2nccc(-c3cn(C4CC4)c4ccccc34)n2)c(OC)cc1N(C)CCN(C)C [Example 26, N-(5-((4-(1-cyclopropyl-1H-indol-3-yl)pyrimidin-2-yl)amino)-2-((2-(dimethylamino)ethyl)(methyl)amino)-4-methoxyphenyl)acrylamide]
Selectivity of wild-type/mutant-type ([3]; ratio A431 IC50 / H1975 IC50, cells): 208.7
